Laboratory results: patent publication US12697326B2, “Methods of treating hepatic encephalopathy” (SALIX PHARMACEUTICALS, INC., priority 2008, dated 2026)

Tests used:
in vitro = details: human, in vivo
subjects with HE = experiment: Treatment-emergent adverse events, first study; format: in vivo, human; details: rifaximin group
Text: A total of 79.9% of subjects (239 of 299) experienced TEAEs during the course of the study.

[1] = system: HE-related hospitalization in subjects with hepatic encephalopathy (HE); experiment: Time to first HE-related hospitalization, first study; format: in vivo, human; details: for Cummulative number of events / Number of events / Probability of no HE-related hospitalization: ITT
Text: Time to first HE-related hospitalization was computed as the number of days from the first dose of rifaximin to the first hospitalization for an HE related event. The analysis of time to first HE-related hospitalization was based on the comparison of time to hospitalization between rifaximin and placebo.
FIG. 9 illustrates time to first HE-related hospitalization (e.g., hospitalization directly resulting from HE or hospitalization caused by HE) by treatment group in the ITT population in the first study. Table 19 presents estimates of the proportions of subjects who had their first HE-related hospitalization over the course of the Treatment Period and results of statistical analyses. Subjects who discontinued prior to hospitalization due to HE and prior to completion of the 6-month treatment period were censored at the time of discontinuation. […] This hazard ratio represents a 50% reduction, when compared with placebo, in the risk of hospitalization due to HE during the 6-month treatment period.
Note for FIG. 9, the survival distribution estimate on y-axis represents the proportion of subjects without HE-related hospitalization. Dashed line represents rifaximin group and solid line represents placebo group. Open circles and open triangles represent censored subjects. Subjects who discontinued prior to hospitalization due to HE and prior to completion of the 6-month treatment period were censored at the time of discontinuation. Hepatic encephalopathy-related hospitalization was recorded on the HE-related hospitalization CRF.

[2] = system: liver transplant patients with HE; experiment: Chart review of 39 liver transplant patients with HE Conn scores of 2; format: in vivo, human; details: 24 lactulose, 15 rifaximin
[3] = system: Conn score and asterixis grade in subjects with HE; experiment: Changes from baseline in Conn scores and asterixis grades, second study; format: in vivo, human
Text: Normalizing for subject exposure, this represents a hospitalization rate of 0.60 event/PEY. A total of 59 were hospitalized due HE episodes (e.g., HE-caused). Normalizing for subject exposure, this represents an HE-caused hospitalization rate of 0.29 event/PEY. […] All subjects were capable of worsening over time, and 24/266 subjects (9.0%) did so by 1 or 2 grades.
The last visit for the second study is the last visit recorded for the interim analysis.

[4] = first HE-related hospitalization, Table 4, 550 mg BID, N = 140, Days >=168
[5] = first HE-related hospitalization, Table 4; 550 mg BID; N = 140; Days [0-28)
[6] = first HE-related hospitalization, Table 4, 550 mg BID, N = 140, Days [28-56]
[7] = first HE-related hospitalization, Table 4; 550 mg BID; N = 140; Days [56-84)
[8] = first HE-related hospitalization, Table 4; 550 mg BID; N = 140; Days [84-140)
[9] = first HE-related hospitalization, Table 4; 550 mg BID; N = 140; Days [140-168)
[10] = first HE-related hospitalization, Table 17, 550 mg BID, N = 140, Days >=168
[11] = first HE-related hospitalization, Table 17; 550 mg BID; N = 140; Days [0-28)
[12] = first HE-related hospitalization, Table 17; 550 mg BID; N = 140; Days [28-56)
[13] = first HE-related hospitalization, Table 17; 550 mg BID; N = 140; Days [56-84)
[14] = first HE-related hospitalization, Table 17; 550 mg BID; N = 140; Days [84-140)
[15] = first HE-related hospitalization, Table 17; 550 mg BID; N = 140; Days [140-168)
[16] = first study, first HE-related hospitalization, N = 140, treatment interval 0 to <28 days
[17] = first study, first HE-related hospitalization, N = 140, treatment interval 28 to <56 days
[18] = first study, first HE-related hospitalization, N = 140, treatment interval 56 to <84 days
[19] = first study, first HE-related hospitalization, N = 140, treatment interval 84 to <140 days
[20] = first study, first HE-related hospitalization, N = 140, treatment interval 140 to <168 days
[21] = first study, first HE-related hospitalization, N = 140, treatment interval ≥168 days

CO[C@H]1/C=C/O[C@@]2(C)Oc3c(C)c(O)c4c(O)c(c5c(nc6cc(C)ccn65)c4c3C2=O)NC(=O)/C(C)=C\C=C\[C@H](C)[C@H](O)[C@@H](C)[C@@H](O)[C@@H](C)[C@H](OC(C)=O)[C@@H]1C [Rifaximin]
fraction unbound (in vitro): 0.447 | TEAE ascites, subjects (subjects with HE): 11.4% | TEAE diarrhea, subjects (subjects with HE): 10.7% | TEAE dizziness, subjects (subjects with HE): 12.9% | TEAE fatigue, subjects (subjects with HE): 12.1% | TEAE headache, subjects (subjects with HE): 10% | TEAE nausea, subjects (subjects with HE): 14.3% | TEAE peripheral edema, subjects (subjects with HE): 15% | Cumulative Occurrences of Events [1, 4]: 23 | Occurrences of Events [1, 4]: 0 | Survival [1, 4]: 0.8108 | Cumulative Occurrences of Events [1, 5]: 6 | Occurrences of Events [1, 5]: 6 | Survival [1, 5]: 1.0000 | Cumulative Occurrences of Events [1, 6]: 10 | Occurrences of Events [1, 6]: 4 | Survival [1, 6]: 0.9564 | Cumulative Occurrences of Events [1, 7]: 15 | Occurrences of Events [1, 7]: 5 | Survival [1, 7]: 0.9258 | Cumulative Occurrences of Events [1, 8]: 20 | Survival [1, 8]: 0.8848 | Cumulative Occurrences of Events [1, 9]: 23 | Occurrences of Events [1, 9]: 3 | Survival [1, 9]: 0.8403 | Cumulative Occurrences of Events [1, 10]: 19 | Occurrences of Events [1, 10]: 0 | Survival [1, 10]: 0.8475 | Cumulative Occurrences of Events [1, 11]: 4 | Occurrences of Events [1, 11]: 4 | Survival [1, 11]: 1.0000 | Cumulative Occurrences of Events [1, 12]: 8 | Occurrences of Events [1, 12]: 4 | Survival [1, 12]: 0.9711 | Cumulative Occurrences of Events [1, 13]: 12 | Occurrences of Events [1, 13]: 4 | Survival [1, 13]: 0.9411 | Cumulative Occurrences of Events [1, 14]: 17 | Occurrences of Events [1, 14]: 5 | Survival [1, 14]: 0.9094 | Cumulative Occurrences of Events [1, 15]: 19 | Occurrences of Events [1, 15]: 2 | Survival [1, 15]: 0.8665 | Cummulative number of events [1, 16]: 4 | Number of events [1, 16]: 4 | Probability of no HE-related hospitalization [1, 16]: 1.0000 | Cummulative number of events [1, 17]: 8 | Number of events [1, 17]: 4 | Cummulative number of events [1, 18]: 12 | Number of events [1, 18]: 4 | Cummulative number of events [1, 19]: 17 | Number of events [1, 19]: 5 | Probability of no HE-related hospitalization [1, 19]: 0.9094 | Cummulative number of events [1, 20]: 19 | Number of events [1, 20]: 2 | Cummulative number of events [1, 21]: 19 | Number of events [1, 21]: 0 | subjects with HE-related hospitalizations (of 140) ([1]; first study, rifaximin group): 19 | reduction in risk of hospitalization due to HE (HE-related) compared with placebo ([1]; first study, 6-month treatment period): 50% | time to first HE related hospitalization vs placebo (FIG. 3, Kaplan Meier) ([1]; in vivo): increased time to hospitalization | hospitalizations reported for the group [2]: 3 | subjects with worsening of Conn score by 1 or 2 grades ([3]; 24/266 subjects): 9.0% | incidence of worsening asterixis grades ([3]; continuing rifaximin group, 6/70 subjects): 8.6% | subjects with 2-grade improvement in asterixis among those entering with scores of 1, 2 or 3 ([3]; last visit, 4 subjects of 67): 6.0% | subjects with 3-grade improvement in asterixis among those entering with scores of 1, 2 or 3 ([3]; last visit, 5 subjects of 67): 7.5% | subjects with 2-grade improvement in Conn score among those entering with Conn 1, 2, or 3 ([3]; last visit, 7 subjects of 84): 8.3% | subjects with 1-grade improvement in Conn score among those entering with Conn 1, 2, or 3 ([3]; last visit, 47 subjects of 84): 56.0% | incidence of worsening asterixis grades ([3]; new rifaximin group, 12/196 subjects): 6.1%
